System: SMN2-linked luciferase-reporter gene construct
Assay: SMN Splice Reporter Assay (SMN2-linked luciferase reporter)
Format: cell-based
Settings: for EC50: cervical carcinoma cell lines, SMN2 splice luciferase reporter; for Fold Increase: fold-increase of luciferase over baseline reading of transformed cells without any test compound
Outline: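 Cervical carcinoma cells carrying an SMN2-luciferase splicing reporter, in-frame only with exon 7 inclusion, were treated with compound. Luciferase activity reported as fold increase over untreated transformed cells, with EC50 derived.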

EC50	SMILES	Fold Increase
374 nM	Cc1cc2cc(N3Cc4ccc(OC(F)F)cc4C3=O)ccc2n1C [Example 123204]	1.361
	COc1ccc2c(c1)C(=O)N(c1ccc3nccc(OC)c3c1)C2 [Example 123205]	1.227
119 nM	COc1ccc2c(c1)C(=O)N(c1ccc3nc(Cl)ccc3c1)C2 [Example 123206]	1.531
444 nM	CCOc1ccc2c(c1)C(=O)N(c1ccc3c(c1)cc(C)n3C)C2 [Example 123328]	1.316
569 nM	CCC(C)c1ccc2c(c1)C(=O)N(c1ccc3c(c1)cc(C)n3C)C2 (stereo not shown) [Example 123329]	1.327
660 nM	CCCCc1ccc2c(c1)C(=O)N(c1ccc3c(c1)cc(C)n3C)C2 [Example 123331]	1.31
207 nM	COc1ccc2c(c1)C(=O)N(c1ccc3nc(N(C)C)ccc3c1)C2 [Example 123332]	1.272
20 nM	COc1ccc2c(c1)C(=O)N(c1ccc3nc(OC)ccc3c1)C2 [Example 123333]	1.376
359 nM	Cc1cc2cc(N3Cc4ccc(CC(C)C)cc4C3=O)ccc2n1C [Example 123439]	1.357
	Cn1ccc2cc(N3Cc4ccc(N5CCOCC5)cc4C3=O)ccc21 [Example 123587]	1.256
	CN1CCN(c2ccc3c(c2)C(=O)N(c2ccc4c(ccn4C)c2)C3)CC1 [Example 123588]	1.183
78 nM	COc1ccc2c(c1)C(=O)N(c1ccc3nccc(C)c3c1)C2 [Example 123589]	1.541
128 nM	COc1ccc2c(c1)C(=O)N(c1ccc3sc(C)c(C)c3c1)C2 [Example 123590]	1.405
47 nM	COc1ccc2c(c1)C(=O)N(c1ccc3ccc(Cl)nc3c1)C2 [Example 123710]	1.327
1580 nM	COc1ccc2c(c1)C(=O)N(c1ccc3c(Cl)ccnc3c1)C2 [Example 123711]	1.262
147 nM	COc1ccc2c(c1)C(=O)N(c1ccc3c(OC)ccnc3c1)C2 [Example 123712]	1.38
	COc1ccc2c(c1)C(=O)N(c1ccc3c(N(C)C)ccnc3c1)C2 [Example 123713]	1.072
145 nM	CCCOc1ccc2c(c1)C(=O)N(c1ccc3c(c1)cc(C)n3C)C2 [Example 123715]	1.216
	COc1ccc2c(c1)C(=O)N(c1ccc3c(c1)cc(C(=O)N1CCCC1)n3C)C2 [Example 123935]	1.124
784 nM	COc1ccc2c(c1)C(=O)N(c1ccc3ccc(OC)nc3c1)C2 [Example 123936]	1.429
	COc1ccc2c(c1)C(=O)N(c1ccc3ccc(N(C)C)nc3c1)C2 [Example 123937]	1.202
	Cc1cc2cc(N3Cc4ccc(OC5CCCC5)cc4C3=O)ccc2n1C [Example 123938]	1.2
	CCOC1CS(=O)(=O)c2cc(N3Cc4ccc(OC)cc4C3=O)ccc21 (stereo not shown) [Example 124031]	1.106
225 nM	O=C1c2cc(Br)ccc2CN1c1ccc2ncccc2c1 [Example 124033]	1.795
440 nM	CC(=O)Nc1ccc2c(c1)C(=O)N(c1ccc3c(c1)cc(C)n3C)C2 [Example 124034]	1.494

EC50	SMILES	Fold Increase
	CCCCOc1ccc2c(c1)C(=O)N(c1ccc3c(c1)cc(C)n3C)C2 [Example 124035]	1.118
1640 nM	COc1cc2c(cc1OC)C(=O)N(c1ccc3c(c1)cc(C)n3C)C2 [Example 124036]	1.34
5970 nM	COc1ccc2c(c1)C(=O)N(c1ccc3c(N(C)C)ccnc3c1)C2 [Example 124037]	1.377
26 nM	COc1ccc2c(c1)C(=O)N(c1ccc3c(C)ccnc3c1)C2 [Example 124038]	1.509
520 nM	Cn1ccc2ccc(N3Cc4ccc(O)cc4C3=O)cc21 [Example 124039]	1.893
	Cc1cc2cc(N3Cc4ccc(S(C)(=O)=O)cc4C3=O)ccc2n1C [Example 124166]	1.227
69 nM	CCOc1ccc2c(c1)C(=O)N(c1ccc3ccn(C)c3c1)C2 [Example 124167]	1.759
	Cn1ccc2ccc(N3Cc4ccc(S(C)(=O)=O)cc4C3=O)cc21 [Example 124168]	1.462
152 nM	CCc1ccc2c(c1)C(=O)N(c1ccc3ccn(C)c3c1)C2 [Example 124169]	1.673
	COc1ccc2c(c1)C(=O)N(c1ccc3ccc(O)nc3c1)C2 [Example 124170]	1.102
145 nM	CCCOc1ccc2c(c1)C(=O)N(c1ccc3ccn(C)c3c1)C2 [Example 124325]	1.69
560 nM	CCc1cc2cc(N3Cc4ccc(OC)cc4C3=O)ccc2n1C [Example 124327]	1.361
	COCc1cc2cc(N3Cc4ccc(OC)cc4C3=O)ccc2n1C [Example 124328]	1.305
151 nM	CCCc1ccc2c(c1)C(=O)N(c1ccc3ccn(C)c3c1)C2 [Example 124428]	1.692
46 nM	COc1ccc2c(c1)C(=O)N(c1ccc3ccc(C)nc3c1)C2 [Example 124430]	1.411
	Cn1ccc2ccc(N3Cc4ccc(N5CCOCC5)cc4C3=O)cc21 [Example 124539]	1.652
	CN1CCN(c2ccc3c(c2)C(=O)N(c2ccc4ccn(C)c4c2)C3)CC1 [Example 124649]	1.119
96 nM	Cn1ccc2ccc(N3Cc4ccc(N5CCCCC5)cc4C3=O)cc21 [Example 124650]	1.684
116 nM	COc1ccc2c(c1)C(=O)N(c1ccc3c(c1)cc1n3CCC1)C2 [Example 124651]	1.452
24 nM	O=C1c2cc(N3CCCC3)ccc2CN1c1ccc2ncccc2c1 [Example 124770]	1.948
	COc1ccc2c(c1)C(=O)N(c1ccc3c(c1)cc(CN(C)C)n3C)C2 [Example 124772]	1.148
	COc1ccc2c(c1)C(=O)N(c1ccc3c(c1)cc(C(C)C)n3C)C2 [Example 124773]	1.255
327 nM	COc1ccc2c(c1)C(=O)N(c1ccc3cc4n(c3c1)CCC4)C2 [Example 124774]	1.369
	Cn1ccc2ccc(N3Cc4ccc(NC(=O)c5ccccc5)cc4C3=O)cc21 [Example 124775]	1.216
	CC(C)C(=O)Nc1ccc2c(c1)C(=O)N(c1ccc3ccn(C)c3c1)C2 [Example 124776]	2.069

EC50	SMILES	Fold Increase
135 nM	Cn1ccc2ccc(N3Cc4ccc(OC5CCCC5)cc4C3=O)cc21 [Example 124860]	1.582
	Cc1cc2ccc(N3Cc4ccc(Cl)cc4C3=O)cc2n1C [Example 124861]	1.268
	Cn1ccc2cc(N3Cc4ccc(NC(=O)c5ccccc5)cc4C3=O)ccc21 [Example 124862]	1.07
	CC(C)C(=O)Nc1ccc2c(c1)C(=O)N(c1ccc3c(ccn3C)c1)C2 [Example 124863]	1.251
277 nM	CC(C)C(=O)Nc1ccc2c(c1)C(=O)N(c1ccc3c(ccn3C)c1)C2 [Example 124864]	1.519
	Cn1ccc2ccc(N3Cc4ccc(NS(C)(=O)=O)cc4C3=O)cc21 [Example 124977]	1.061
	Cc1cc2ccc(N3Cc4ccc(-c5ccccc5)cc4C3=O)cc2n1C [Example 124978]	1.115
	COc1ccc2c(c1)C(=O)N(c1ccc3c(c1)cc(-c1ccccc1)n3C)C2 [Example 124979]	1.378
	Cn1ccc2cc(N3Cc4ccc(NS(C)(=O)=O)cc4C3=O)ccc21 [Example 124980]	1.534
	Cn1ccc2ccc(N3Cc4ccc(NC=O)cc4C3=O)cc21 [Example 124981]	1.638
	CCCOc1ccc2c(c1)C(=O)N(c1ccc3cc(C)n(C)c3c1)C2 [Example 124982]	1.221
	CCOc1ccc2c(c1)C(=O)N(c1ccc3cc(C)n(C)c3c1)C2 [Example 124983]	1.305
	Cc1cc2ccc(N3Cc4ccc(O)cc4C3=O)cc2n1C [Example 124984]	1.401
	Cc1cc2ccc(N3Cc4ccc(-c5cccnc5)cc4C3=O)cc2n1C [Example 125093]	1.082
3 nM	CC(C)Oc1ccc2c(c1)C(=O)N(c1ccc3cc[nH]c3c1)C2 [Example 125095]	1.134
44 nM	Cn1ccc2cc(N3Cc4ccc(NC=O)cc4C3=O)ccc21 [Example 125096]	1.371
50 nM	COc1ccc2c(c1)C(=O)N(c1ccc3cc(C)[nH]c3c1)C2 [Example 125097]	1.347
134 nM	Cc1cc2ccc(N3Cc4ccc(OC(C)C)cc4C3=O)cc2n1C [Example 125098]	1.251
15 nM	CC(=O)Nc1ccc2c(c1)C(=O)N(c1ccc3cc[nH]c3c1)C2 [Example 125269]	1.416
22 nM	CC(C)n1ccc2cc(N3Cc4ccc(N(C)C)cc4C3=O)ccc21 [Example 125271]	1.285
	CC(C)n1ccc2cc(N3Cc4ccc(N5CCCC5)cc4C3=O)ccc21 [Example 125384]	1.091
	Cc1cc2cc(N3Cc4ccc(Br)cc4C3=O)ccc2n1C(C)C [Example 125385]	1.454
	CCCc1ccc2c(c1)C(=O)N(c1ccc3c(ccn3C(C)C)c1)C2 [Example 125386]	1.037
4 nM	CN(C)c1ccc2c(c1)C(=O)N(c1ccc3cc[nH]c3c1)C2 [Example 125600]	1.405
	CCCc1ccc2c(c1)C(=O)N(c1ccc3c(c1)cc(C)n3C(C)C)C2 [Example 125601]	1.027

Reference: US20100267712A1, “ISOINDOLINE COMPOUNDS FOR THE TREATMENT OF SPINAL MUSCULAR ATROPHY AND OTHER USES” (The United States of America, as represented by the …, priority 2007, published 2010)
